According to patent publication US20240287081A1, “PERFLUOROALKANE SUBSTITUTED PYRAZOLO[3,4-D]PYRIMIDIN AND PYRROLO[2,3-D]PYRIMIDIN COMPOUNDS AND USES THEREOF” (ICAHN SCHOOL OF MEDICINE AT MOUNT SINAI, priority 2021, published 2024):

Experiments:
[1] = system: ptc>dRet^M955T flies; experiment: Fly rescue assay (Drosophila MTC model ptc>dRet^M955T); format: in vivo; conditions: compound in fly food, 13 d at 25° C., baseline viability 0%
Procedure: Kinase-mutated fly stocks were obtained from Bloomington Drosophila Stock Center (BDSC; Bloomington, IN). The active mutant form of Drosophila Ret (dRet^955T) carries an M955T mutation corresponding to the M918T mutation commonly reported for multiple endocrine neoplasia (MEN) type 2B patients12,14,16,34. The ptc-gal4, UAS-GFP;UAS-dRet^M955T/SM5tub-gal80-TM6B transgenic flies were prepared according to standard protocols and crossed with non-transgenic w-flies (BDSC) to generate ptc-gal4, UAS-GFP; UAS-dRet^M955T(ptc>dRet^M955T) flies for chemical screening.
All drugs were synthesized in-house. All compounds were dissolved in DMSO (Sigma-Aldrich; St. Louis, MO) and mixed with semi-defined fly medium (BDSC) to make drug food (0.1% final DMSO concentration). For drug screening, ptc>dRet^M955T embryos were raised until adulthood on drug food for 13 d at 25° C. The number of empty pupal cases (i.e., adults) ? that of total pupal cases (P) to determine % viability. Fly randomization was used throughout the assays.
In this model, compounds are assessed based on their ability to suppress oncogenic Ret^M955T-induced tumors, which can be quantified as ‘rescue’ from lethality. […] The baseline viability of ptc>Ret^1955T flies was calibrated to zero, which creates a high bar for rescue but also reduces false-positive hits. Hundreds of flies are tested per condition (typical n values are […] administered through fly food.

[2] = system: P-gp; experiment: MDCK permeability assay; format: in vitro ADME; conditions: dog, 1 hour at 37° C., HBSS pH 7.4 both sides, read-out: influx/efflux ratio in MDCK
Procedure: (§1) FIGS. 9A-9C show the physicochemical comparison of R^F and R^H Analogs. FIG. 9A is a graph of the MDCK and Caco-2 permeability assays for the indicated compounds. Compounds were assayed at 5 μM and transport (Papp, B-A and Papp, A-B, ×10^−6 cm/s) values were measured to determine influx over efflux ratios. […] There are differences in magnitude for bond and molecular dipoles, and R^F- and R^H-substituents have opposite charge profiles.
(§2) Caco-2 and MDCK permeability assays to assess transport in both directions, apical to basolateral (A-B) and basolateral to apical (B-A), across a cell monolayer were conducted at Quintara Discovery. The compounds were tested at a final concentration of 5 microM, with HBSS, pH 7.4 on apical side and HBSS, pH 7.4 on basolateral side. Transport was allowed to proceed for 1 hour at 37° C., with compound detection performed by LC-MS/MS. Assays were conducted twice. Papp, B-A and Papp, A-B, ×10^−6 cm/s values were determined at Quintara.

[3] = system: human MTC cell line TT; conditions: previous work; cited from earlier work
[4] = Caco-2 permeability assay; format: in vitro ADME; conditions: human, 1 hour at 37° C., HBSS pH 7.4 both sides, read-out: influx/efflux ratio in Caco-2
Procedure: as §1, §2

[5] = system: panel of 468 purified human kinases; experiment: In vitro kinase percent inhibition, panel of 468 kinases (DiscoverX); format: binding; conditions: 1 μM; for binding to wild-type RET and RET^M918T, in words: kinase panel
Procedure: Compounds were assayed against a panel of 468 purified human kinases (DiscoverX) to measure percentage inhibition values and derive kinome profiles (FIGS. 3B-3C). All compounds were screened at 1 μM, using two experimental replicates to determine percent inhibition values. Detailed procedures for kinase reactions and assay formats are described at http://www.discoverx.com. Raw data sets for individual compounds were filtered based on the variance of experimental replicates (cutoff=average variance+standard deviation).

[6] = molecular target: T1, wild-type RET kinase domain (Homo sapiens, UniProt P07949); experiment: Wild-type RET Kd, bead based competition assay (KINOMEscan, DiscoverX); format: binding; conditions: recombinant human wild-type RET kinase domain, average of two replicates; read-out: Kd towards wild-type RET
T1 construct: determined against recombinant-human, wild-type RET kinase domain; phage display fusion (kinase expressed on phage); purchased DiscoverX (Fremont, CA); host or cells: phage
T1 sequence (P07949 724-1016 limits assumed): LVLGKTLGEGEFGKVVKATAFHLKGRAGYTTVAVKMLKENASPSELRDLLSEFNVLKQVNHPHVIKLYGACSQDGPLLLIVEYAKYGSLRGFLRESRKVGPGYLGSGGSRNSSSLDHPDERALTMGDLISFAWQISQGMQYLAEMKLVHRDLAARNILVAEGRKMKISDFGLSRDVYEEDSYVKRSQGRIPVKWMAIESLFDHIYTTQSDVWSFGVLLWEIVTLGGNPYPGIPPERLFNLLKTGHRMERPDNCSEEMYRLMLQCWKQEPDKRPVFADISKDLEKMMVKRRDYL
Procedure: Wild-type RET Kd values were determined by DiscoverX (Fremont, CA) using a bead based competition assay (KINOMEscan). In brief, kinases are expressed on phage and immobilized on beads via active site-directed ligands. Test compounds are premixed with kinases and assayed for the ability to compete for immobilized ligands. Binding constants are calculated with a standard dose-response curve and the Hill equation, with Hill slope set to −1. […] Kd values are the average of two experimental replicates.
To assess if the differences in activity between R^F- and R^H-analogs were related to alterations in target engagement, representative analogs for binding on wild-type RET were compared. For this KD values of compounds 40 (para-C2F5) and 50 (para-C2H5) were determined against recombinant-human, wild-type RET kinase domain.

[7] = cited from earlier work

| Compound | rescue (percent viability of adult flies, adults/pupae×100) [1] | efflux ratio at 1 h, 5 µM [2] | performance in mouse xenograft, in words [3] | efflux ratio at 1 h, 5 µM [4] | binding to wild-type RET and RET^M918T, in words [5] | binding to wild-type RET and RET^M918T, in words ([5]; listed as 8-82-1) | binding profile / selectivity across the kinome, in words ([5]; panel of 468 kinases) | number of kinases bound with >80% efficacy ([5]; panel of 468 kinases) | Kd [6] | protein-bound in blood plasma [7] |
| --- | --- | --- | --- | --- | --- | --- | --- | --- | --- | --- |
| CNC(=O)c1cc(Oc2ccc(NC(=O)Nc3cc(C(F)(C(F)(F)F)C(F)(F)F)ccc3F)cc2)ccn1 [APS-6-45] | 84% | < 2 | performed well | > 2 | – | – | – | – | – | – |
| CNC(=O)c1cc(Oc2ccc(NC(=O)Nc3ccc(C(F)(C(F)(F)F)C(F)(F)C(F)(F)F)cc3)c(F)c2)ccn1 (stereo not shown) [APS-8-82-1] | 85% | – | – | – | selective for mutant RET^M918T | selectivity for the M918T mutant over wild-type | highly selective across the kinome | 7 | 110 nM | – |
| CNC(=O)c1cc(Oc2ccc(NC(=O)Nc3ccc(Cl)c(C(F)(F)F)c3)cc2)ccn1 [Sorafenib, sorafenib] | – | < 2 | – | > 2 | – | – | – | – | – | > 99% |
